According to patent US9382203B2, “N-carbamoylmethyl-4-(R)-phenyl-2-pyrrolidinone, method of its preparation and pharmaceutical use” (Joint Stock Company (JSC) “OLAINFARM”, priority 2006, dated 2016):
Marks after values point to notes of the source that are not given here.

What was measured:
Format in all cases: in vivo
male ICR mice [1] = assay: Porsolt forced swim test (FST); conditions: for Immobility in FST (in words): after preliminary treatment, mice; for Immobilization time: i.p. 100 mg/kg, 1 hour before the test, male ICR mice
male ICR mice [2] = assay: Open field test, locomotor activity; conditions: for Exploratory activity counts / Vertical activity counts / Horizontal activity counts: male ICR mice
male ICR mice [3] = assay: Muscle relaxant activity, chimney test; conditions: Mus musculus, ip; i.p. administration in dosages 50; 100; 250 and 500 mg/kg
male ICR mice [4] = assay: Muscle relaxant activity, traction test; conditions: Mus musculus, ip; i.p. administration in dosages 50; 100; 250 and 500 mg/kg
male ICR mice [5] = assay: Muscle relaxant activity, rota rod test; conditions: Mus musculus, ip; i.p. administration in dosages 50; 100; 250 and 500 mg/kg
male ICR mice [6] = assay: Analgesic effect, hot plate test; conditions: Mus musculus, ip; i.p. administration in dosages 50; 100; 250 and 500 mg/kg

Structure (SMILES) | Immobility in FST (in words) (male ICR mice [1]) | Immobilization time (male ICR mice [1]) | Exploratory activity counts (male ICR mice [2]; 30 min after i.p. 50 mg/kg) [counts] | Vertical activity counts (male ICR mice [2]; 30 min after i.p. 50 mg/kg) [counts] | Exploratory activity counts (male ICR mice [2]; 60 min after i.p. 50 mg/kg) [counts] | Vertical activity counts (male ICR mice [2]; 60 min after i.p. 50 mg/kg) [counts] | Exploratory activity counts (male ICR mice [2]; 120 min after i.p. 50 mg/kg) [counts] | Vertical activity counts (male ICR mice [2]; 120 min after i.p. 50 mg/kg) [counts] | Activity at the end of the 120 min observation period relative to S-Carphedon (male ICR mice [2]; i.p. 50 mg/kg) | Animal activity in open field test (in words) (male ICR mice [2]; i.p. 50 mg/kg, 120 min observation period) | ED50 (male ICR mice [3]) [mg/kg] | ED50 (male ICR mice [4]) [mg/kg] | ED50 (male ICR mice [5]) [mg/kg] | ED50 (male ICR mice [6]) [mg/kg] | Horizontal activity counts (male ICR mice [2]; 30 min after i.p. 50 mg/kg) [counts] | Horizontal activity counts (male ICR mice [2]; 120 min after i.p. 50 mg/kg) [counts]
NC(=O)CN1C[C@@H](c2ccccc2)CC1=O [R-Carphedon, N-Carbamoylmethyl-4(R)-phenyl-2-pyrrolidinone] | did not spent any time immobile | 0^## sec | 15.5 ± 2.9 | 10.0 ± 1.5 | 16.4 ± 3.6 | 12.5 ± 3.2 | 17.8 ± 4.7 | 11.6 ± 4.0 | about two times higher | prolonged and stable increase in animal activity | 199 ± 38 | 456 ± 122 | 193 ± 26 | 10 ± 42 |  | 
NC(=O)CN1C[C@H](c2ccccc2)CC1=O [S-Carphedon, N-Carbamoylmethyl-4(S)-phenyl-2-pyrrolidinone] | immobilization in response to stress factor | 110 ± 12 s |  | 7.0 ± 1.6 | 7.8 ± 4.2 | 7.0 ± 2.8 | 11.5 ± 2.8 | 4.9 ± 1.7 |  |  | 286 ± 78 | 548 ± 75 | 459 ± 87 | 50 ± 63 | 56.3 ± 5.7 | 36.4 ± 7.1
